# Measured values from publication PMC9543091, “A bacterial chemoreceptor that mediates chemotaxis to two different plant hormones” (Environmental Microbiology, 2022).
# How the values were obtained:
# [1] = molecular target: T1, PcpI (Pseudomonas putida, UniProt A0A4D6XHR0); test: isothermal titration calorimetry; format: binding
# T1 construct: gene E6B08_28110; LBD (amino acids 38–174)
# T1 sequence (A0A4D6XHR0 38-174): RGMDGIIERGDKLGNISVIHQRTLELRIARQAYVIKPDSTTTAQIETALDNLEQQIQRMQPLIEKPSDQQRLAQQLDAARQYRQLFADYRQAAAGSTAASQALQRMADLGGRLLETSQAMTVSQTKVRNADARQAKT
# [2] = molecular target: T2, E6B08_RS28125 (solute binding protein); test: isothermal titration calorimetry (and DSF); set-up: species or system Pseudomonas putida
# T2 construct: recombinant from pET28b(+), without the predicted signal peptide
# [3] = molecular target: T1, PcpI; test: isothermal titration calorimetry; DSF Tm shift […]°C; format: binding
# Source text: Exothermic heats were observed that decreased as protein saturation progressed
Structure (SMILES),Kd [2] [µM],also measured
Cc1cccc(C(=O)O)c1 [3-methylbenzoate],,Kd ([1]; read-out: Kd): 91 ± 8 µM
N=C(N)NCCC[C@H](N)C(=O)O [L-Arg],29.5 ± 3,
N[C@@H](Cc1c[nH]cn1)C(=O)O [L-His],3.3 ± 0.3,
NCCC[C@H](N)C(=O)O [L-ornithine],0.9 ± 0.1,
O=C(O)c1ccccc1 [benzoate],,Kd [1]: 171 ± 14 µM
O=C(O)c1ccccc1O [salicylate],,Kd [3]: 826 ± 34 µM
